{"source": "paper PMC11352258", "about": "“The Influence of Betulin and Its Derivatives on Selected Colorectal Cancer Cell Lines’ Viability and Their Antioxidant Systems” (Cells, 2024)", "key": {"[1]": {"tested_on": "superoxide dismutase (SOD) activity in RKO cells", "test": "SOD activity in RKO cells", "type": "cell-based", "conditions": "10 µg/mL, 24 h", "method": "(§1) In addition, two colorectal cancer cell lines, RKO and SW1116, were distinguished based on a different response to the EB5 derivative. To perform subsequent analyses, the selected CRC lines were treated with EB5 derivative at a concentration of 10 µg/mL for 24 h. Untreated cells were used as a negative control. Three biological replicates were performed.\n(§2) To examine the antioxidant capacity of the cells as well as lipid peroxidation and to evaluate the activity of antioxidant enzymes, the cells were suspended in lysis buffer (containing 4 mg of […]™ Protease Inhibitor Cocktail and 10 µL of Phosphatase Inhibitor Cocktail 3 in 1 mL of PBS; Sigma-Aldrich, St Louis, MO, USA). Subsequently, the cells were placed in liquid nitrogen for 30 min, followed by storage at −80 °C until further analysis.\n(§3) Superoxide dismutase (SOD), glutathione peroxidase (GPx) and catalase (CAT) activities were assessed using a commercially purchased Cayman Chemicals Superoxide Dismutase Assay Kit, a Cayman Chemicals Glutathione Peroxidase Assay Kit and a Catalase Assay Kit (Cayman Chemicals, Ann Arbor, MI, USA), respectively, according to the manufacturer’s recommendations and based on a previous study. […] The level of change in absorbance was measured spectrophotometrically at the appropriate wavelength for the assay, i.e., for SOD in the range 440–460 nm, for GPx at 340 nm and for CAT at 540 nm."}, "[2]": {"tested_on": "colorectal cancer cell lines RKO, HT29, DLD-1, HCT116, Caco2 and SW1116", "test": "MTT cytotoxicity assay, statements over all tested cell lines", "conditions": "MTT, 24 h", "method": "(§4) Six colorectal cancer cell lines, RKO, HT29, DLD-1, HCT116, Caco2 and SW1116 (CRL-2577, HTB-38, CCL-221, CCL-247, HTB-37, CCL-233; ATCC, Manassas, VA, USA, respectively, for CRC lines), and one normal cell line, CCD-841CoN (CRL-1790, ATCC, USA), were routinely cultured at 37 °C in a 5% CO2 incubator (Direct Heat CO2; Thermo Scientific, Waltham, MA, USA) in cell line-appropriate culture medium according to the manufacturer’s recommendations. Eagle’s minimum essential medium (EMEM) was used to culture RKO, Caco2 and CCD-841CoN lines, while McCoy’s 5A medium was used for HT29 and HCT116 lines. DLD-1 cells were grown in RPMI-1640 medium, whereas SW1116 cells were maintained in Leibovitz’s L-15 medium. All culture media were supplemented with 10% fetal bovine serum (EuroClone, Milan, Italy), and gentamycin at the concentration […] (BioWhittaker, Lonza, Basel, Switzerland) was also applied to prevent culture contamination.\n(§5) For this purpose, cells were exposed to the test compound for 24 h at concentrations of 0.1, 1, 10, 20, 50 and 100 μg/mL. Control cells were not treated with the compounds. MTT (0.25 mg/mL) was then added to the cultures and incubated for 3 h at 37 °C. After a time, the cells were washed with phosphate buffered saline (PBS), and next, formazan dye was dissolved in 100 μL of dimethyl sulfoxide (Sigma-Aldrich, St Louis, MO, USA). Absorbance was measured at 540 nm using a Wallac 1420 VICTOR microplate reader (PerkinElmer, Waltham, MA, USA)."}, "[3]": {"tested_on": "SW1116 cells", "test": "Lipid peroxidation, MDA assay, SW1116", "type": "cell-based", "conditions": "SW1116, 10 µg/mL, 24 h", "method": "(§6) In addition, two colorectal cancer cell lines, RKO and SW1116, were distinguished based on a different response to the EB5 derivative. […] Untreated cells were used as a negative control. Three biological replicates were performed. To examine the antioxidant capacity of the cells as well as lipid peroxidation and to evaluate the activity of antioxidant enzymes, the cells were suspended in lysis buffer (containing 4 mg of […]™ Protease Inhibitor Cocktail and 10 µL of Phosphatase Inhibitor Cocktail 3 in 1 mL of PBS; Sigma-Aldrich, St Louis, MO, USA). Subsequently, the cells were placed in liquid nitrogen for 30 min, followed by storage at −80 °C until further analysis. To assess the level of lipid peroxidation, the Malondialdehyde Assay Kit (Aoxre BioSciences, Burlingame, CA, USA) was used, according to the manufacturer’s recommendations."}, "[4]": {"tested_on": "HT29 cells", "test": "MTT cytotoxicity assay, HT29", "type": "cell-based", "conditions": "Homo sapiens, HT-29; HT29, MTT, 24 h; read-out: IC50 value", "from_the_text": "(§7) Control cells were not treated with the compounds."}, "[5]": {"tested_on": "catalase (CAT) activity in SW1116 cells", "test": "CAT activity in SW1116 cells", "type": "cell-based", "conditions": "SW1116, 10 µg/mL, 24 h", "method": "as §1, §2\nSuperoxide dismutase (SOD), glutathione peroxidase (GPx) and catalase (CAT) activities were assessed using a commercially purchased Cayman Chemicals Superoxide Dismutase Assay Kit, a Cayman Chemicals Glutathione Peroxidase Assay Kit and a Catalase Assay Kit (Cayman Chemicals, Ann Arbor, MI, USA), respectively, according to the manufacturer’s recommendations and based on a previous study. The cell supernatant from previously prepared cell lysates of the tested lines provided material for further analyses. The level of change in absorbance was measured spectrophotometrically at the appropriate wavelength for the assay, i.e., for SOD in the range 440–460 nm, for GPx at 340 nm and for CAT at 540 nm."}, "[6]": {"tested_on": "DLD-1 cells", "test": "MTT cytotoxicity assay, DLD-1", "type": "cell-based", "conditions": "Homo sapiens; DLD-1, MTT, 24 h; read-out: IC50 value", "from_the_text": "as §7"}, "[7]": {"tested_on": "Caco2 cells", "test": "MTT cytotoxicity assay, Caco2", "type": "cell-based", "conditions": "Homo sapiens, Caco-2; Caco2, MTT, 24 h; read-out: IC50 value"}, "[8]": {"tested_on": "CAT gene expression in RKO cells", "test": "CAT mRNA, real-time RT-qPCR, RKO", "type": "cell-based", "conditions": "10 µg/mL, 24 h", "method": "as §1\nTotal RNA from treated cells was extracted using TRIzol reagent (Sigma-Aldrich, St Louis, MO, USA) according to the manufacturer’s instructions. The obtained RNA was assessed qualitatively and quantitatively by agarose gel electrophoresis and by spectrophotometric measurement using MaestroNano MN-913 (MaestroGen Inc., Las Vegas, NV, USA), respectively. The obtained extracts provided the starting material for the assessment of genes changes at the mRNA level.\nChanges in the expression of SOD1, SOD2, CAT and GPX3 genes involved in antioxidant systems were assessed by real-time RT-qPCR using a LightCycler® 480 System apparatus (Roche, Basel, Switzerland). A commercially purchased GoTaq® 1-Step RT-qPCR System (Promega, Madison, WI, USA) was used, while the primers and reaction conditions were the same as in the previous study performed by Kruszniewska-Rajs et al.. GAPDH was used as the reference gene. The mRNA expression level studied genes were then determined by the 2^−ΔCt relative quantification method. All samples were tested in triplicate. The specificity of the reaction was evaluated based on the melting temperature curve, as well as using electrophoresis of the amplification products in a 2% agarose gel."}, "[9]": {"tested_on": "glutathione peroxidase (GPx) activity in RKO cells", "test": "GPx activity in RKO cells", "type": "cell-based", "conditions": "10 µg/mL, 24 h", "method": "as §1, §2, §3"}, "[10]": {"tested_on": "SW1116 cells", "test": "MTT cytotoxicity assay, SW1116", "conditions": "Homo sapiens, SW 1116, 24 h", "method": "as §4, §5"}, "[11]": {"tested_on": "HCT116 cells", "test": "MTT cytotoxicity assay, HCT116", "type": "cell-based", "conditions": "Homo sapiens; HCT 116, MTT, 24 h; read-out: IC50 value", "from_the_text": "as §7"}, "[12]": {"tested_on": "RKO cells", "test": "MTT cytotoxicity assay, RKO", "conditions": "Homo sapiens, 24 h", "method": "as §4, §5"}, "[13]": {"tested_on": "RKO cells", "test": "Lipid peroxidation, MDA assay, RKO", "type": "cell-based", "conditions": "10 µg/mL, 24 h", "method": "as §6"}}, "note": "Values joined by “and” are separate entries in the source; they are usually repeats but may differ in a detail not shown here. Equal values may be shown once."}
{"compound": "O=c1[nH]cc(F)c(=O)[nH]1", "note": "[5FU, 5-fluorouracil]", "values": [{"measurement": "SOD activity compared to cells treated with betulin", "setting": "[1]", "result": "modest increase"}, {"measurement": "cytotoxic effect compared with the other tested compounds", "setting": "[2]", "result": "weaker"}, {"measurement": "MDA level compared to the control", "setting": "[3]", "result": "did not cause changes"}, {"measurement": "IC50", "setting": "[4]", "result": "> 100 µg/mL and > 769 µM"}, {"measurement": "catalase activity compared to cells treated with EB5", "setting": "[5]", "result": "higher catalase activity"}, {"measurement": "catalase activity compared to cells treated with betulin", "setting": "[5]", "result": "higher catalase activity"}, {"measurement": "catalase activity compared to the control", "setting": "[5]", "result": "higher catalase activity"}, {"measurement": "IC50", "setting": "[6]", "result": "> 100 µg/mL and > 769 µM"}, {"measurement": "IC50", "setting": "[7]", "result": "> 100 µg/mL and > 769 µM"}, {"measurement": "CAT gene expression vs. untreated cells", "setting": "[8]", "result": "significant decrease in expression"}, {"measurement": "GPx activity vs. cells treated with EB5", "setting": "[9]", "result": "slight increase"}, {"measurement": "viability at 10 µg/mL", "setting": "[10]", "result": "≥ 50", "unit": "%"}, {"measurement": "IC50", "setting": "[10]; read-out: IC50 value", "result": "> 100 µg/mL and > 769 µM"}, {"measurement": "IC50", "setting": "[11]", "result": "> 100 µg/mL and > 769 µM"}, {"measurement": "viability at 10 µg/mL", "setting": "[12]", "result": "≥ 50", "unit": "%"}, {"measurement": "IC50", "setting": "[12]; read-out: IC50 value", "result": "> 100 µg/mL and > 769 µM"}, {"measurement": "increase in MDA levels compared to the control cells", "setting": "[13]", "result": "about 62.2%"}]}
